# Values of other authors, collected in patent US20110290909A1, “MULTI-COMPONENT INSECT ATTRACTANT” (priority 2006, published 2011).
# What was measured:
# male melon flies = conditions: cue lure compared with raspberry ketone
# male melon fruit flies = conditions: in vivo
SMILES,effects on mating success (male melon flies),effectiveness as chemical attractant for male melon fruit flies (male melon fruit flies)
CC(=O)CCc1ccc(OC(C)=O)cc1 [cue lure],"similar, short-lasting effects",
CC(=O)CCc1ccc(O)cc1 [raspberry ketone],"similar, short-lasting effects",very effective chemical attractant
